The values that follow are results of earlier work, collected in patent publication US10463679B2, “Compressed capsules for giving birth to males” (priority 2016, dated 2019).

The conditions of series [1]: manufacturer's web site and prescription accompanying Florinef tablet.
For series [2] the following is noted: sodium and chloride intake per day.
In a further series the test system is mice. The settings on record: for mice.
For series [3] the following is noted: one liter administered intravenously; glucose 5% + water, saline 9% sodium chloride + water, albumin.

As for `C[C@]12CCC(=O)C=C1CC[C@H]1[C@@H]3CC[C@](O)(C(=O)CO)[C@@]3(C)C[C@H](O)[C@@]12F` [Fludrocortisone], in series [1], the “side effects of the drug” value is “skin thinning and fragility”.

As for `[Cl-].[Na+]` [Sodium chloride], the harmful dose in series [2] is reported as 1000 g per day. For the same compound, the lethal dose in the series on mice is on record as 2.5 g/kg per day. In the case of Saline, in series [3], the “distribution of the solution among the three regions (intracellular, intercellular, blood vessels)” value is reported as “distributed among the three regions but precipitated in the intercellular region”.
